# Source: patent US20240158446A1, “CYCLIC COMPOUND HAVING SELECTIVE INHIBITORY ACTION ON KRAS OVER HRAS AND NRAS” (CHUGAI SEIYAKU KABUSHIKI KAISHA, priority 2021, published 2024)
# *1 amine or outer side, *2 acyl side, *3 side chain or, on linkers, in order; H or OH if unused. Where a SMILES comes first, the peptide text is derived from it. Bridges are numbered along the chain shown (N, C = ends). [ ]: non-standard residue; d: D form. The star is where a group is joined. hPhe(3-Cl-4-CF3) = N[C@@H](CCc1ccc(C(F)(F)F)c(Cl)c1)C(=O)O; X52 = CCCN([C@@H](Cc1ccc(OC(F)(F)F)cc1)C(=O)[*:2])[*:1]; NPrPhe(4-CF3) = CCCN[C@@H](Cc1ccc(C(F)(F)F)cc1)C(=O)O; X53 = C#CCN([C@@H](Cc1ccc(C)cc1)C(=O)[*:2])[*:1]; NMeGly(cPent) = CN[C@H](C(=O)O)C1CCCC1; Pro(4S-Me) = C[C@@H]1CN[C@H](C(=O)O)C1; Aze(3S-Me) = C[C@H]1CN[C@@H]1C(=O)O; Gly(cPent) = N[C@H](C(=O)O)C1CCCC1; cisHyp = O=C(O)[C@@H]1C[C@H](O)CN1; NMeD = CN[C@@H](CC(=O)O)C(=O)O; NMeL = CN[C@@H](CC(C)C)C(=O)O; Morpholide = C1CN(*)CCO1; NMeA = CN[C@@H](C)C(=O)O; Ac5c = NC1(C(=O)O)CCCC1; Aze = O=C(O)[C@@H]1CCN1; Ethyl(2,2-F2) = FC(F)C*; NEtG = CCNCC(=O)O; Sar = CNCC(=O)O
# Target: GDP-bound KRAS wild-type protein (Homo sapiens, UniProt P01116)
# Sequence (P01116 whole entry): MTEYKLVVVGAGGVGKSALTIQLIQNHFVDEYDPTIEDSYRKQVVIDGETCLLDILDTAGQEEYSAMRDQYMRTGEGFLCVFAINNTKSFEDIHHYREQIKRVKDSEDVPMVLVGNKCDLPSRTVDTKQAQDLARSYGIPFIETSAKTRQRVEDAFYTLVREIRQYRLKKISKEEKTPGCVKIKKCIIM
# Assay: Binding to KRAS by surface plasmon resonance (SPR), Single Cycle Kinetics
# Details: SPR Single Cycle Kinetics, GDP-bound KRAS wild-type protein, 1:1 binding model; read-out: KRAS KD
row,Kd [nM],SMILES
1,0.36,CCCN1C(=O)[C@@H]2CCN2C(=O)[C@@H]2[C@@H](C)CN2C(=O)[C@H]([C@@H](C)CC)NC(=O)[C@H](CC(C)C)N(C)C(=O)C[C@@H](C(=O)N2CCOCC2)N(C)C(=O)[C@H](C2CCCC2)N(C)C(=O)C2(CCCC2)NC(=O)[C@@H]2CCCN2C(=O)[C@H](CCc2ccc(C(F)(F)F)c(Cl)c2)NC(=O)CN(C)C(=O)[C@@H]1Cc1ccc(C(F)(F)F)cc1 [PP0279] ([NMeL]I[Aze(3S-Me)][Aze][NPrPhe(4-CF3)][Sar][hPhe(3-Cl-4-CF3)]P[Ac5c][NMeGly(cPent)][NMeD]-Morpholide; lactam N-11)
2,0.083,C#CCN1C(=O)[C@@H]2CCN2C(=O)[C@H](C)N(C)C(=O)[C@H]([C@@H](C)CC)NC(=O)[C@H](CC(C)C)N(C)C(=O)C[C@@H](C(=O)N2CCOCC2)N(C)C(=O)[C@H](C2CCCC2)N(C)C(=O)C2(CCCC2)NC(=O)[C@@H]2CCCN2C(=O)[C@H](CCc2ccc(C(F)(F)F)c(Cl)c2)NC(=O)CN(C)C(=O)[C@@H]1Cc1ccc(C)cc1 [PP0090] ([NMeL]I[NMeA][Aze][X53][Sar][hPhe(3-Cl-4-CF3)]P[Ac5c][NMeGly(cPent)][NMeD]-Morpholide; lactam N-11)
3,0.37,"CCCN1C(=O)CN(C)C(=O)CN(C)C(=O)[C@H]([C@@H](C)CC)NC(=O)[C@H](CC(C)C)N(C)C(=O)C[C@@H](C(=O)N2CCOCC2)N(C)C(=O)[C@H](C2CCCC2)N(C)C(=O)C2(CCCC2)NC(=O)[C@@H]2C[C@H](OCC(F)F)CN2C(=O)[C@H](CCc2ccc(C(F)(F)F)c(Cl)c2)NC(=O)CN(C)C(=O)[C@@H]1Cc1ccc(C(F)(F)F)cc1 [PP0245] ([NMeL]I[Sar][Sar][NPrPhe(4-CF3)][Sar][hPhe(3-Cl-4-CF3)][cisHyp](Ethyl(2,2-F2))[Ac5c][NMeGly(cPent)][NMeD]-Morpholide; lactam N-11)"
4,0.47,CCCN1C(=O)CN(C)C(=O)CN(C)C(=O)[C@H]([C@@H](C)CC)NC(=O)[C@H](CC(C)C)N(C)C(=O)C[C@@H](C(=O)N2CCOCC2)N(C)C(=O)[C@H](C2CCCC2)N(C)C(=O)C2(CCCC2)NC(=O)[C@@H]2CCCN2C(=O)[C@H](CCc2ccc(C(F)(F)F)c(Cl)c2)NC(=O)CN(C)C(=O)[C@@H]1Cc1ccc(OC(F)(F)F)cc1 [PP0137] ([NMeL]I[Sar][Sar][X52][Sar][hPhe(3-Cl-4-CF3)]P[Ac5c][NMeGly(cPent)][NMeD]-Morpholide; lactam N-11)
5,0.18,CCCN1C(=O)[C@@H]2CCN2C(=O)[C@H](C)N(C)C(=O)[C@H]([C@@H](C)CC)NC(=O)[C@H](CC(C)C)N(C)C(=O)C[C@@H](C(=O)N2CCOCC2)N(C)C(=O)[C@H](C2CCCC2)N(C)C(=O)C2(CCCC2)NC(=O)[C@@H]2C[C@H](C)CN2C(=O)[C@H](CCc2ccc(C(F)(F)F)c(Cl)c2)NC(=O)CN(C)C(=O)[C@@H]1Cc1ccc(C(F)(F)F)cc1 [PP0455] ([NMeL]I[NMeA][Aze][NPrPhe(4-CF3)][Sar][hPhe(3-Cl-4-CF3)][Pro(4S-Me)][Ac5c][NMeGly(cPent)][NMeD]-Morpholide; lactam N-11)
6,0.37,CCCN1C(=O)[C@@H]2CCN2C(=O)CN(C)C(=O)[C@H]([C@@H](C)CC)NC(=O)[C@H](CC(C)C)N(C)C(=O)C[C@@H](C(=O)N(C)C)NC(=O)[C@H](C2CCCC2)N(C)C(=O)C2(CCCC2)NC(=O)[C@@H]2CCCN2C(=O)[C@H](CCc2ccc(C(F)(F)F)c(Cl)c2)NC(=O)CN(C)C(=O)[C@@H]1Cc1ccc(C(F)(F)F)cc1 [PP0385] ([NMeL]I[Sar][Aze][NPrPhe(4-CF3)][Sar][hPhe(3-Cl-4-CF3)]P[Ac5c][NMeGly(cPent)]D-NMe2; lactam N-11)
7,0.25,CCCN1C(=O)CN(C)C(=O)CN(C)C(=O)[C@H](C2CCCC2)NC(=O)[C@H](CC(C)C)N(C)C(=O)C[C@@H](C(=O)N2CCOCC2)N(C)C(=O)[C@H](C2CCCC2)N(C)C(=O)C2(CCCC2)NC(=O)[C@@H]2CCCN2C(=O)[C@H](CCc2ccc(C(F)(F)F)c(Cl)c2)NC(=O)CN(C)C(=O)[C@@H]1Cc1ccc(C(F)(F)F)cc1 [PP0251] ([NMeL][Gly(cPent)][Sar][Sar][NPrPhe(4-CF3)][Sar][hPhe(3-Cl-4-CF3)]P[Ac5c][NMeGly(cPent)][NMeD]-Morpholide; lactam N-11)
8,0.75,CCCN1C(=O)CN(C)C(=O)CN(CC)C(=O)[C@H]([C@@H](C)CC)NC(=O)[C@H](CC(C)C)N(C)C(=O)C[C@@H](C(=O)N2CCOCC2)N(C)C(=O)[C@H](C2CCCC2)N(C)C(=O)C2(CCCC2)NC(=O)[C@@H]2C[C@H](C)CN2C(=O)[C@H](CCc2ccc(C(F)(F)F)c(Cl)c2)NC(=O)CN(C)C(=O)[C@@H]1Cc1ccc(C(F)(F)F)cc1 [PP0451] ([NMeL]I[NEtG][Sar][NPrPhe(4-CF3)][Sar][hPhe(3-Cl-4-CF3)][Pro(4S-Me)][Ac5c][NMeGly(cPent)][NMeD]-Morpholide; lactam N-11)
